One assay deals with T1, human V2 receptor (Homo sapiens, UniProt P30518).
T1 construct: expressed in transfected cells; host or cells: CHO K1 (ATCC) expressing firefly luciferase under a CRE-responsive promoter
Kind of assay: Cellular in vitro assay for determining vasopressin receptor activity, V2 receptor cell line (CHO, CRE-luciferase). It is filed as cell-based. As to conditions: CHO cell line transfected with human V2 receptor; [Arg8]-vasopressin at EC50 concentration, 3 hours; read-out: IC50 hV2.

Another assay concerns the target T2, human V1a receptor (Homo sapiens, UniProt P37288).
T2 construct: expressed in transfected cells; host or cells: CHO K1 (ATCC), also stably transfected with a modified aequorin
The assay can be described thus: Cellular in vitro assay for determining vasopressin receptor activity, V1a receptor cell line (CHO, aequorin luminescence). The note with it: for pIC50: CHO cell line transfected with human V1a receptor, [Arg]-vasopressin at EC50 concentration, read-out: IC50 hV1a; for ratio IC50 hV2/hV1a: selectivity ratio IC50 hV2 / IC50 hV1a. Format: cell-based. The gist of the method: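 CHO K1/aequorin cells, coelenterazine 5 μg/ml o/n; cpd 10 min; [Arg]-vasopressin at EC50; luminescence read immediately; IC50.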

pIC50: −log10 of the molar value.

T1 sequence (P30518 whole entry): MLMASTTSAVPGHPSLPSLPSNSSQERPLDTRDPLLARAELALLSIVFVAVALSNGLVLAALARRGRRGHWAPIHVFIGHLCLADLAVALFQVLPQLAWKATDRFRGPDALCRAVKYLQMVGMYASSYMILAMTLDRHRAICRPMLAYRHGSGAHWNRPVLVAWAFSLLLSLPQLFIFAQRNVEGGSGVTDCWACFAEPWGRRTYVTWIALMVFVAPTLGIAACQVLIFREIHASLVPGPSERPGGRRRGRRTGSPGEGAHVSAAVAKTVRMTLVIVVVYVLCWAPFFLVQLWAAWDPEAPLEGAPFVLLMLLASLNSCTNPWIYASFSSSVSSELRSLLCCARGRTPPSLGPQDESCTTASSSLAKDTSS
T2 sequence (P37288 whole entry): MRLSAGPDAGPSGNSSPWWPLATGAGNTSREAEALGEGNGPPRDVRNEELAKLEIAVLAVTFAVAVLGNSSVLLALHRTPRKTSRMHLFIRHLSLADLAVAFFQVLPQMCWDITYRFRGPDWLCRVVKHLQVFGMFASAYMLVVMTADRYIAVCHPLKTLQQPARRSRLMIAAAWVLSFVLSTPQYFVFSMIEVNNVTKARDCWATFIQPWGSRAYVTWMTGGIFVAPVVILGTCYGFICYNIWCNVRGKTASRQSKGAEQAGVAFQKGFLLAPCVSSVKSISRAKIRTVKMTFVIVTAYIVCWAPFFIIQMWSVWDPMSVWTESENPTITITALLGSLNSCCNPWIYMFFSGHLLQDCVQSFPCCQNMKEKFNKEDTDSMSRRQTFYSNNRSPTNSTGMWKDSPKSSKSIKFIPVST

`CC1CCN(C(=O)c2ccccc2-n2cnc(Cn3nc(-c4ccc(Cl)cc4)n(C[C@H](O)C(F)(F)F)c3=O)n2)CC1` [Example 347, 5-(4-Chlorophenyl)-2-[(1-{2-[(4-methylpiperidin-1-yl)carbonyl]phenyl}-1H-1,2,4-triazol-3-yl)methyl]-4-[(2S)-3,3,3-trifluoro-2-hydroxypropyl]-2,4-dihydro-3H-1,2,4-triazol-3-one]: the pIC50 on human V2 receptor was 5.97. Also, on human V1a receptor, the pIC50 was 8.12 and the “ratio IC50 hV2/hV1a” value came to 141.1.
On to `O=C(c1ccccc1-n1cnc(Cn2nc(-c3ccc(Cl)cc3)n(C[C@H](O)C(F)(F)F)c2=O)n1)N1CCCC1` [Example 348, 5-(4-Chlorophenyl)-2-({1-[2-(pyrrolidin-1-ylcarbonyl)phenyl]-1H-1,2,4-triazol-3-yl}methyl)-4-[(2S)-3,3,3-trifluoro-2-hydroxypropyl]-2,4-dihydro-3H-1,2,4-triazol-3-one], for which the figures for the negative-log IC50 (pIC50) on human V2 receptor and at human V1a receptor were 6.01 and 8.41, respectively. The “ratio IC50 hV2/hV1a” value at human V1a receptor turned out to be 251.9.
For `CCN(C(=O)c1ccccc1-n1cnc(Cn2nc(-c3ccc(Cl)cc3)n(C[C@H](O)C(F)(F)F)c2=O)n1)C(C)C` [Example 349, 2-[3-({3-(4-Chlorophenyl)-5-oxo-4-[(2S)-3,3,3-trifluoro-2-hydroxypropyl]-4,5-dihydro-1H-1,2,4-triazol-1-yl}methyl)-1H-1,2,4-triazol-1-yl]-N-ethyl-N-(propan-2-yl)benzamide] the same measures were 6.13, 8.33 and 157.4.
The like results for `O=C(c1ccccc1-n1cnc(Cn2nc(-c3ccc(Cl)cc3)n(C[C@H](O)C(F)(F)F)c2=O)n1)N1CCCCCC1` [Example 350, 2-({1-[2-(Azepan-1-ylcarbonyl)phenyl]-1H-1,2,4-triazol-3-yl}methyl)-5-(4-chlorophenyl)-4-[(2S)-3,3,3-trifluoro-2-hydroxypropyl]-2,4-dihydro-3H-1,2,4-triazol-3-one] were, in that order, 6.58, 8.74 and 147.2.
The like results for `CC1CCCCN1C(=O)c1ccccc1-n1cnc(Cn2nc(-c3ccc(Cl)cc3)n(C[C@H](O)C(F)(F)F)c2=O)n1` (stereo partly drawn) [Example 352, 5-(4-Chlorophenyl)-2-{[1-(2-{[2-methylpiperidin-1-yl]carbonyl}phenyl)-1H-1,2,4-triazol-3-yl]methyl}-4-[(2S)-3,3,3-trifluoro-2-hydroxypropyl]-2,4-dihydro-3H-1,2,4-triazol-3-one] were, in that order, 6.49, 9.08 and 383.2.
With `O=C(c1ccccc1-n1cnc(Cn2nc(-c3ccc(Cl)cc3)n(C[C@H](O)C(F)(F)F)c2=O)n1)N1CC=CCC1` [Example 353, 5-(4-Chlorophenyl)-2-({1-[2-(3,6-dihydropyridin-1(2H)-ylcarbonyl)phenyl]-1H-1,2,4-triazol-3-yl}methyl)-4-[(2S)-3,3,3-trifluoro-2-hydroxypropyl]-2,4-dihydro-3H-1,2,4-triazol-3-one], the negative-log IC50 (pIC50) at human V2 receptor was 6.55. Moreover, on human V1a receptor, the pIC50 was 9.03 and the “ratio IC50 hV2/hV1a” value came to 299.5.
On to `O=C(NC1CCCCC1)c1ccccc1-n1cnc(Cn2nc(-c3ccc(Cl)cc3)n(C[C@H](O)C(F)(F)F)c2=O)n1` [Example 354, 2-[3-({3-(4-Chlorophenyl)-5-oxo-4-[(2S)-3,3,3-trifluoro-2-hydroxypropyl]-4,5-dihydro-1H-1,2,4-triazol-1-yl}methyl)-1H-1,2,4-triazol-1-yl]-N-cyclohexylbenzamide], for which the pIC50 on human V2 receptor was 6.82. Moreover, at human V1a receptor, the pIC50 is 8.65 and the “ratio IC50 hV2/hV1a” value was found to be 66.7.
For `CC(C)CN(C)C(=O)c1ccccc1-n1cnc(Cn2nc(-c3ccc(Cl)cc3)n(C[C@H](O)C(F)(F)F)c2=O)n1` [Example 356, 2-[3-({3-(4-Chlorophenyl)-5-oxo-4-[(2S)-3,3,3-trifluoro-2-hydroxypropyl]-4,5-dihydro-1H-1,2,4-triazol-1-yl}methyl)-1H-1,2,4-triazol-1-yl]-N-methyl-N-(2-methylpropyl)benzamide] the same measures were 5.72, 8.61 and 771.4.
For `CN1CCN(C(=O)c2ccccc2-n2cnc(Cn3nc(-c4ccc(Cl)cc4)n(C[C@H](O)C(F)(F)F)c3=O)n2)CC1` [Example 357, 5-(4-Chlorophenyl)-2-[(1-{2-[(4-methylpiperazin-1-yl)carbonyl]phenyl}-1H-1,2,4-triazol-3-yl)methyl]-4-[(2S)-3,3,3-trifluoro-2-hydroxypropyl]-2,4-dihydro-3H-1,2,4-triazol-3-one] the same measures were 5.61, 7.48 and 74.2.
For `CCN1CCN(C(=O)c2ccccc2-n2cnc(Cn3nc(-c4ccc(Cl)cc4)n(C[C@H](O)C(F)(F)F)c3=O)n2)CC1` [Example 358, 5-(4-Chlorophenyl)-2-[(1-{2-[(4-ethylpiperazin-1-yl)carbonyl]phenyl}-1H-1,2,4-triazol-3-yl)methyl]-4-[(2S)-3,3,3-trifluoro-2-hydroxypropyl]-2,4-dihydro-3H-1,2,4-triazol-3-one] the same measures were 5.56, 7.74 and 152.8.
For the compound `O=C(c1ccccc1-n1cnc(Cn2nc(-c3ccc(Cl)cc3)n(C[C@H](O)C(F)(F)F)c2=O)n1)N1CCCCCCC1` [Example 359, 2-({1-[2-(Azocan-1-ylcarbonyl)phenyl]-1H-1,2,4-triazol-3-yl}methyl)-5-(4-chlorophenyl)-4-[(2S)-3,3,3-trifluoro-2-hydroxypropyl]-2,4-dihydro-3H-1,2,4-triazol-3-one], the negative logarithm of the IC50 (pIC50) at human V2 receptor was 6.05; at human V1a receptor, 8.19. Further, the “ratio IC50 hV2/hV1a” value at human V1a receptor is recorded as 138.5.
The like results for `O=C(Nc1ccccc1)c1ccccc1-n1cnc(Cn2nc(-c3ccc(Cl)cc3)n(C[C@H](O)C(F)(F)F)c2=O)n1` [Example 360, 2-[3-({3-(4-Chlorophenyl)-5-oxo-4-[(2S)-3,3,3-trifluoro-2-hydroxypropyl]-4,5-dihydro-1H-1,2,4-triazol-1-yl}methyl)-1H-1,2,4-triazol-1-yl]-N-phenylbenzamide] were, in that order, 7.83, 9.13 and 20.1.
Turning to `Cc1cccc(NC(=O)c2ccccc2-n2cnc(Cn3nc(-c4ccc(Cl)cc4)n(C[C@H](O)C(F)(F)F)c3=O)n2)c1` [Example 361, 2-[3-({3-(4-Chlorophenyl)-5-oxo-4-[(2S)-3,3,3-trifluoro-2-hydroxypropyl]-4,5-dihydro-1H-1,2,4-triazol-1-yl}methyl)-1H-1,2,4-triazol-1-yl]-N-(3-methylphenyl)benzamide], on human V2 receptor, the pIC50 is 7.01. Also, on human V1a receptor, the negative-log IC50 (pIC50) is 8.59 and the “ratio IC50 hV2/hV1a” value is 38.2.
For `CN(CCC#N)C(=O)c1ccccc1-n1cnc(Cn2nc(-c3ccc(Cl)cc3)n(C[C@H](O)C(F)(F)F)c2=O)n1` [Example 362, 2-[3-({3-(4-Chlorophenyl)-5-oxo-4-[(2S)-3,3,3-trifluoro-2-hydroxypropyl]-4,5-dihydro-1H-1,2,4-triazol-1-yl}methyl)-1H-1,2,4-triazol-1-yl]-N-(2-cyanoethyl)-N-methylbenzamide] the same measures were 5.60, 8.31 and 515.5.
In the case of `O=C(NCc1ccccc1F)c1ccccc1-n1cnc(Cn2nc(-c3ccc(Cl)cc3)n(C[C@H](O)C(F)(F)F)c2=O)n1` [Example 363, 2-[3-({3-(4-Chlorophenyl)-5-oxo-4-[(2S)-3,3,3-trifluoro-2-hydroxypropyl]-4,5-dihydro-1H-1,2,4-triazol-1-yl}methyl)-1H-1,2,4-triazol-1-yl]-N-(2-fluorobenzyl)benzamide], the negative logarithm of the IC50 (pIC50) is 6.46 at human V2 receptor and 8.26 at human V1a receptor. The “ratio IC50 hV2/hV1a” value on human V1a receptor was found to be 62.7.
For `O=C(NCC(F)(F)F)c1cccc(Cl)c1-n1cnc(Cn2nc(-c3ccc(Cl)cc3)n(C[C@H](O)C(F)(F)F)c2=O)n1` [Example 365, 3-Chloro-2-[3-({3-(4-chlorophenyl)-5-oxo-4-[(2S)-3,3,3-trifluoro-2-hydroxypropyl]-4,5-dihydro-1H-1,2,4-triazol-1-yl}methyl)-1H-1,2,4-triazol-1-yl]-N-(2,2,2-trifluoroethyl)benzamide] the same measures were 6.04, 7.52 and 30.7.
As for `O=C(NCC(F)(F)F)c1cccc(Cl)c1-n1cnc(Cn2nc(-c3ccc(Cl)cc3)n(C[C@@H](O)C(F)(F)F)c2=O)n1` [Example 366, 3-Chloro-2-[3-({3-(4-chlorophenyl)-5-oxo-4-[(2R)-3,3,3-trifluoro-2-hydroxypropyl]-4,5-dihydro-1H-1,2,4-triazol-1-yl}methyl)-1H-1,2,4-triazol-1-yl]-N-(2,2,2-trifluoroethyl)benzamide], the pIC50 on human V2 receptor was 5.43. Further, on human V1a receptor, the negative-log IC50 (pIC50) was 6.71 and the “ratio IC50 hV2/hV1a” value was 19.0.
With `O=C(NC1CC1)c1cccc(Cl)c1-n1cnc(Cn2nc(-c3ccc(Cl)cc3)n(C[C@H](O)C(F)(F)F)c2=O)n1` [Example 369, 3-Chloro-2-[3-({3-(4-chlorophenyl)-5-oxo-4-[(2S)-3,3,3-trifluoro-2-hydroxypropyl]-4,5-dihydro-1H-1,2,4-triazol-1-yl}methyl)-1H-1,2,4-triazol-1-yl]-N-cyclopropylbenzamide], the pIC50 at human V2 receptor is 6.33. Besides, at human V1a receptor, the pIC50 was 8.55 and the “ratio IC50 hV2/hV1a” value amounted to 167.9.

For the origin of these results see patent US11173151B2, “Substituted triazole derivatives and uses thereof” (BAYER AKTIENGESELLSCHAFT, priority 2017, dated 2021).
